The source of these data is patent US11744804B2, “Microcapsule powder stable in gastric acid, method for preparing same, and use thereof” (HOBOOMLIFE BIO-TECHNOLOGY (SHENZHEN) CO., LTD., priority 2021, dated 2023).

The nature of this data set: Release test in artificial intestinal juice. The data set is classed as physicochemical. The settings on record: for Dissolution rate of core material after 1 h / Dissolution rate of core material after 2 h / Dissolution rate of core material after 3 h / Dissolution rate of core material after 4 h: artificial intestinal juice, 37° C., 100 r/min; for Retention rate of NADH before test: before artificial intestinal juice test. On the procedure: A Tablet Four-Usage Tester was used for testing. The tester was started for preheating. The temperature was set at 37° C. A basket shaft and a basket were installed. A positioning ball used for positioning (marked) was put into a dissolution cup (900 mL of prepared artificial intestinal juice was added into each dissolution cup) and fixed. 200 mg of sample 2 and 200 mg of sample 5 in the examples as well as 200 mg of corresponding core materials were taken respectively, wrapped with gauze and put into corresponding baskets. After being rotated at 100 r/min for 1, 2, 3 and 4 h, 1 mL of liquid was taken from each of the dissolution cups. The contents of the core materials in the samples were detected by the same detection method as in Example 1.
Retention rate of core material=(Theoretical embedding amount of core material in sample-Content of core material in artificial intestinal juice detected)/Theoretical embedding amount of core material in sample. The theoretical embedding amount of the core material in the sample is the added amount of the core material in the sample.

As to `NC(=O)C1=CN([C@@H]2O[C@H](COP(=O)(O)OP(=O)(O)OC[C@H]3O[C@@H](n4cnc5c(N)ncnc54)[C@H](O)[C@@H]3O)[C@@H](O)[C@H]2O)C=CC1` [NADH, reduced nicotinamide adenine dinucleotide], the “Dissolution rate of core material after 1 h” value was determined as 99.6%, the “Dissolution rate of core material after 2 h” value turned out to be 99.5%, the “Dissolution rate of core material after 3 h” value was 99.4% and the “Dissolution rate of core material after 4 h” value came to 99.5%. In addition, the “Retention rate of NADH before test” value is listed as 100%.

In the case of `NC(=O)C1=CN([C@@H]2O[C@H](COP(=O)(O)OP(=O)(O)OC[C@H]3O[C@@H](n4cnc5c(N)ncnc54)[C@H](OP(=O)(O)O)[C@@H]3O)[C@@H](O)[C@H]2O)C=CC1` [NADPH, reduced nicotinamide adenine dinucleotide phosphate], the “Dissolution rate of core material after 1 h” value was 98.4%, the “Dissolution rate of core material after 2 h” value came out at 99.7%, the “Dissolution rate of core material after 3 h” value turned out to be 99.3% and the “Dissolution rate of core material after 4 h” value turned out to be 99.1%. Moreover, the “Retention rate of NADH before test” value is 100%.
